Measurements published in US20150231149A1, “SPERM FUNCTION/ACTIVITY” (University of Dundee, priority 2011, published 2015).
Counter-ions that a name gives are not always drawn.

Tests used:
human sperm motility = test: Sperm motility assessment by CASA after PDEi treatment (screening of 43 PDEi); type: cell-based; conditions: for Effect on Sperm Motility: Mild / Effect on Sperm Motility: Strong: X or (X) marks the class, PDEi tested blinded at 1, 10 and 100 μM, 20 min at 37° C., CASA
Description: Almost all phosphodiesterase inhibitors (PDEi) were purchased from Tocris Bioscience (Bristol, UK) and the other inhibitors from Sigma-Aldrich (Dorset, UK) or Santa Cruz Biotechnology (Heidelberg, Germany) by the Drug Discovery Unit (DDU) at the College Life Sciences (University of Dundee, UK) as shown in Table 1. The DDU coded the PDEi upon arrival and the coded samples were tested for sperm function with a primary focus on sperm motility. All 43 PDEi were analyzed blinded with three independent times for quantitative sperm motility using three different final concentrations (1, 10 and 100 μM).
All chemicals were purchased from Sigma-Aldrich. Two different media were used 1-medium not supporting sperm capacitation NCM: 1.8 mM CaCl2, 5.4 mM KCl, 0.8 mM MgSO4.7H2O, 116.3 mM NaCl, 1.0 mM NaH2PO4, 5.55 mM D-glucose, 2.73 mM sodium pyruvate, 41.75 mM sodium lactate, 25 mM HEPES and 2-supporting capacitation CM: 1.8 mM CaCl2, 5.4 mM KCl, 0.8 mM MgSO4.7H2O, 116.3 mM NaCl, 1.0 mM NaH2PO4, 5.55 mM D-glucose, 2.73 mM sodium pyruvate, 25 mM sodium lactate, 26 mM sodium bicarbonate. Semen samples were obtained from healthy donors (normozoospermic) and samples were produced by masturbation into a sterile plastic container after 2-3 days of sexual abstinence. Two different sperm populations were isolated from the semen using a 40-80% discontinuous density gradient procedure. Briefly, 1 ml of semen was loaded after 30 min of liquefaction at 37° C. on the top of a colloidal silica suspension (Pure Sperm™, Nidacon, Mölndal, Sweden) made of 80% and 40% layered (2 ml each). The density gradient was centrifuged at 300×g for 20 min at room temperature. The motile population was found at the bottom of the 80% fraction and the poor motility population was recovered at the interface of 40-80%, respectively called 80% and 40% fraction. Both fractions were washed using a NCM, cells were isolated by a centrifugation for 5 min at 500×g and the sperm pellet was rediluted using a NCM or CM at ˜20-25×10^6 cells/ml. Sperm cells from 3-4 different donors were pooled together after sperm preparation in order to obtain enough cells to screen 4-5 PDEi at the same time and additionally to reduced the variability. The first screening was performed with a NCM because it is the conditions normally used in clinic for intrauterine insemination (IUI). Accordingly, NCM is recommended to prevent capacitation before IUI (Björndahl et al., 2010)
Following isolation, sperm were mixed with DMSO (vehicle; 1% final concentration) or PDEi [all inhibitors were reconstituted into 1% DMSO]. Sperm cells were incubated for 20 min at 37° C. and the sperm motility was evaluated by using a Computer-Assisted-Sperm-Analysis (CASA, Ceros system [version 12]; Hamilton Thorne, Beverly, Mass.) and 4 chamber slides […] (Vitrolife, Sweden). Sperm motility was evaluated from 4 samples per treatment and at least 2,000 sperm cells were analyzed in total (see below). The setting of the CASA used was that established by the manufacturer for human spermatozoa.

[1] = system: poor sperm motility population; test: Sperm penetration assay in 1% methyl cellulose; type: cell-based, human; conditions: PDEi 100 μM, 20 minutes, scored at 1 cm distance, n=6 (FIG. 4)
Description: Methyl cellulose (1% concentration) was used to mimic cervical mucus viscosity and act as a sperm function test (Ivic et al., 2002). Sperm cells were previously treated with PDEi as described above. Glass tubes (5 cm×0.8 cm×2 mm; Vitrocom, NJ, USA) were loaded with methyl cellulose by capillary action (4,000 Sigma M-) prepared in NCM and one extremity was sealed with Cristaseal™ (Hawksley, Sussex, UK). The tubes was incubated with the sperm cells at 37° C. for 1 h 15 min, then the other extremity of the tube was sealed and the number of sperm cells scored at 1 cm and 2 cm using the CASA equipped with a 20× objective magnification. The microscope was adjusted to get the right focus manually at all planes to get the sum of the sperm migrated at this distance. The results are expressed as a penetration index calculated as the number of spermatozoa observed at the site of counting with treatment/the number of spermatozoa without treatment. The speed of sperm population at the migration distance was also analyzed.

SMILES | Effect on Sperm Motility: Mild (human sperm motility) | enhancement of sperm motility in a viscous solution (sperm penetration assay) [1] | also measured
Cc1ccc([N+](=O)[O-])cc1S(=O)(=O)N(C)C [BRL 50481] | (X) |  | 
COc1cc2c(cc1OC)-c1c/c(=N\c3c(C)cc(C)cc3C)n(C)c(=O)n1CC2 [Trequinsin hydrochloride] |  |  | Effect on Sperm Motility: Strong (human sperm motility): (X)
COc1ccc(Cc2nccc3cc(OC)c(OC)cc23)cc1OC [Papaverine] |  | best PDEI's to enhance sperm motility in a viscous solution | effect upon sperm motility (human sperm motility): greater than expected effect upon sperm motility
CN(C(=O)CCCOc1ccc2[nH]c(=O)ccc2c1)C1CCCCC1 [Cilostamide] |  |  | Effect on Sperm Motility: Strong (human sperm motility): (X)
CCC1C(C)=NN=C(c2ccc(OC)c(OC)c2)c2cc(OC)c(OC)cc21 (centres unmarked) [Tofisopam, 1-(3,4-dimethoxyphenyl)-5-ethyl-7,8-dimethoxy-4-methyl-5H-2,3-benzodiazepine] |  | best PDEI's to enhance sperm motility in a viscous solution | effect upon sperm motility (human sperm motility): greater than expected effect upon sperm motility
Cl.Cl.Nc1nc(-c2ccc(Cl)c(Cl)c2)c(-c2ccncc2)s1 [CGH 2466 dihydrochloride] | (X) |  | 
CCOC(=O)C1=C[C@]2(CC)CCCN3CCc4c(n1c1ccccc41)[C@@H]32 [Vinpocetine] | (X) |  | 
CCCCCC[C@@H]([C@@H](C)O)n1cnc2c(N)ncnc21.Cl [EHNA hydrochloride] | (X) |  | 
CC(C)C(=O)c1c(C(C)C)nn2ccccc12 [Ibudilast, 2-methyl-1-(2-propan-2-ylpyrazolo[1,5-a]pyridin-3-yl)propan-1-one] |  | best PDEI's to enhance sperm motility in a viscous solution | 
